Target: human Thrombin (Homo sapiens, UniProt P00734)
Assay: In vitro assay for inhibition of Thrombin (chromogenic or fluorogenic assay)
Assay type: biochemical
Conditions: Example 2 chromogenic assay, other Examples fluorogenic assay, read-out: thrombin inhibitory Ki
Protocol: Thrombin inhibitory activity is measured by the ability to inhibit human α-thrombin in a chromogenic assay using N-p-tosyl-gly-pro-lys p-nitroanilide as the chromogenic substrate, or in a fluorogenic assay using Rhodamine 110, bis-(CBZ-L-valyl-L-prolyl-L-arginine amide) as the fluorogenic substrate.
The compound was diluted from a 10 mM stock solution in dimethylsulfoxide at appropriate concentrations. Assay was performed at room temperature using buffer consisting of: 50 mM HEPES, 150 mM NaCl, 5 mM CaCl2, 0.1% PEG, pH 7.4. containing human Thrombin (final conc. of 1 nM). Compound and enzyme were preincubated for 15 min prior to addition of the substrate (final conc. of 100 μM). The reaction was stopped after 30 min with the addition of soybean trypsin inhibitor or H-D-PHE-PRO-ARG-Chloromethylketone. […] To obtain IC50 values the data were analysed using ActivityBase® and XLfit®.
Compounds were diluted from a 10 mM stock solution in dimethylsulfoxide at appropriate concentrations. Assay was performed at room temperature using buffer consisting of: 50 mM HEPES, 150 mM NaCl, 5 mM CaCl2, 0.1% PEG, pH 7.4. containing human Thrombin (final conc. Of 0.2 nM). Compound and enzyme were preincubated for 15 min prior to addition of the substrate (final conc. of 10 μM). The reaction was stopped after 3 hrs with the addition of H-D-PHE-PRO-ARG-Chloromethylketone. […] To obtain IC50 values the data were analysed using ActivityBase® and XLfit®.

Ki [µM]	Compound
< 0.025	O=C([C@H](Cc1ccccc1)N1CC[C@H](NS(=O)(=O)CCc2ccc(Cl)s2)C1=O)N1CCOCC1 [Example 13, N-{(3S)-1-[(1S)-1-benzyl-2-morpholin-4-yl-2-oxoethyl]-2-oxopyrrolidin-3-yl}-2-(5-chlorothien-2-yl)ethanesulfonamide]
< 0.01	C/C(=C\S(=O)(=O)N[C@H]1CCN([C@@H](Cc2ccccc2)C(=O)N2CCOCC2)C1=O)c1ccc(Cl)s1 [Example 14, (1E)-N-{(3S)-1-[(1S)-1-benzyl-2-morpholin-4-yl-2-oxoethyl]-2-oxopyrrolidin-3-yl}-2-(5-chlorothien-2-yl)prop-1-ene-1-sulfonamide]
< 0.05	COC[C@@H](C(=O)N1CCOCC1)N1CC[C@H](NS(=O)(=O)CCc2ccc(Cl)s2)C1=O [Example 15, 2-(5-chlorothien-2-yl)-N-{(3S)-1-[(1S)-1-(methoxymethyl)-2-morpholin-4-yl-2-oxoethyl]-2-oxopyrrolidin-3-yl}ethanesulfonamide]
< 0.01	COC[C@@H](C(=O)N1CCOCC1)N1CC[C@H](NS(=O)(=O)/C=C(\C)c2ccc(Cl)s2)C1=O [Example 16, (1E)-2-(5-chlorothien-2-yl)-N-{(3S)-1-[(1S)-1-(methoxymethyl)-2-morpholin-4-yl-2-oxoethyl]-2-oxopyrrolidin-3-yl}prop-1-ene-1-sulfonamide]
< 0.01	CO[C@H](C)[C@@H](C(=O)N1CCOCC1)N1CC[C@H](NS(=O)(=O)CCc2ccc(Cl)s2)C1=O [Example 17, 2-(5-chlorothien-2-yl)-N-{(3S)-1-[(1S,2R)-2-methoxy-1-(morpholin-4-ylcarbonyl)propyl]-2-oxopyrrolidin-3-yl}ethanesulfonamide]
< 0.01	CO[C@H](C)[C@@H](C(=O)N1CCOCC1)N1CC[C@H](NS(=O)(=O)/C=C(\C)c2ccc(Cl)s2)C1=O [Example 18, (1E)-2-(5-chlorothien-2-yl)-N-{(3S)-1-[(1S,2R)-2-methoxy-1-(morpholin-4-ylcarbonyl)propyl]-2-oxopyrrolidin-3-yl}prop-1-ene-1-sulfonamide]
< 0.05	C[C@@H](C(=O)N1CCOCC1)N1CC[C@H](N(C)S(=O)(=O)CCc2ccc(Cl)s2)C1=O [Example 19, 2-(5-Chlorothien-2-yl)-N-methyl-N-{(3S)-1-[(1S)-1-methyl-2-morpholin-4-yl-2-oxoethyl]-2-oxopyrrolidin-3-yl}ethanesulfonamide]
< 0.025	C[C@@H](C(=O)N1CCOCC1)N1CC[C@H](N(CC(N)=O)S(=O)(=O)CCc2ccc(Cl)s2)C1=O [Example 20, N^2-{[2-(5-Chlorothien-2-yl)ethyl]sulfonyl}-N^2-{(3S)-1-[(1S)-1-methyl-2-morpholin-4-yl-2-oxoethyl]-2-oxopyrrolidin-3-yl}glycinamide]
< 0.01	O=C(C[C@@H](C(=O)N1CCOCC1)N1CC[C@H](NS(=O)(=O)CCc2ccc(Cl)s2)C1=O)OCc1ccccc1 [Example 21, Benzyl (3S)-3-[(3S)-3-({[2-(5-chlorothien-2-yl)ethyl]sulfonyl}amino)-2-oxopyrrolidin-1-yl]-4-morpholin-4-yl-4-oxobutanoate]
< 0.01	C/C(=C\S(=O)(=O)N[C@H]1CCN([C@@H](CC(=O)OCc2ccccc2)C(=O)N2CCOCC2)C1=O)c1ccc(Cl)s1 [Example 22, Benzyl (3S)-3-[(3S)-3-({[(1E)-2-(5-Chlorothien-2-yl)prop-1-enyl]sulfonyl}amino)-2-oxopyrrolidin-1-yl]-4-morpholin-4-yl-4-oxobutanoate]
< 0.01	O=C([C@H](Cc1cccs1)N1CC[C@H](NS(=O)(=O)CCc2ccc(Cl)s2)C1=O)N1CCOCC1 [Example 23, 2-(5-chlorothien-2-yl)-N-{(3S)-1-[(1S)-2-morpholin-4-yl-2-oxo-1-(thien-2-ylmethyl)ethyl]-2-oxopyrrolidin-3-yl}ethanesulfonamide]
< 0.025	O=C([C@H](Cc1cccs1)N1CC[C@H](NS(=O)(=O)CCc2ccc(Cl)cc2)C1=O)N1CCOCC1 [Example 24, 2-(4-chlorophenyl)-N-{(3S)-1-[(1S)-2-morpholin-4-yl-2-oxo-1-(thien-2-ylmethyl)ethyl]-2-oxopyrrolidin-3-yl}ethanesulfonamide]
< 0.2	C[C@@H](C(=O)N1CCOCC1)N1CC[C@H](NS(=O)(=O)CCc2ccc(Cl)cc2F)C1=O [Example 25, 2-(4-chloro-2-fluorophenyl)-N-{(3S)-1-[(1S)-1-methyl-2-morpholin-4-yl-2-oxoethyl]-2-oxopyrrolidin-3-yl}ethanesulfonamide]
< 0.1	CC[C@@H](C(=O)N1CCOCC1)N1CC[C@H](NS(=O)(=O)CCc2ccc(Br)cc2)C1=O [Example 26, 2-(4-bromophenyl)-N-{(3S)-1-[(1S)-1-(morpholin-4-ylcarbonyl)propyl]-2-oxopyrrolidin-3-yl}ethanesulfonamide]
< 0.025	C[C@@H](C(=O)N1CCOCC1)N1CC[C@H](NS(=O)(=O)CC(F)(F)c2ccc(Cl)cc2)C1=O [Example 27, 2-(4-chlorophenyl)-2,2-difluoro-N-{(3S)-1-[(1S)-1-methyl-2-morpholin-4-yl-2-oxoethyl]-2-oxopyrrolidin-3-yl}ethanesulfonamide]
< 0.025	C[C@@H](C(=O)N1CCOCC1)N1CC[C@H](NS(=O)(=O)/C=C(\F)c2ccc(Cl)cc2)C1=O [Example 28, (Z)-2-(4-chlorophenyl)-2-fluoro-N-{(3S)-1-[(1S)-1-methyl-2-morpholin-4-yl-2-oxoethyl]-2-oxopyrrolidin-3-yl}ethenesulfonamide]
< 0.025	CC[C@H](C)[C@@H](C(=O)N1CCOCC1)N1CC[C@H](NS(=O)(=O)CC(F)(F)c2ccc(Cl)cc2)C1=O [Example 29, 2-(4-chlorophenyl)-2,2-difluoro-N-{(3S)-1-[(1S,2S)-2-methyl-1-(morpholin-4-ylcarbonyl)butyl]-2-oxopyrrolidin-3-yl}ethanesulfonamide]
< 0.2	CC[C@H](C)[C@@H](C(=O)N1CCOCC1)N1CC[C@H](NS(=O)(=O)/C=C(\F)c2ccc(Cl)cc2)C1=O [Example 30, (Z)-2-(4-chlorophenyl)-2-fluoro-N-{(3S)-1-[(1S,2S)-2-methyl-1-(morpholin-4-ylcarbonyl)butyl]-2-oxopyrrolidin-3-yl}ethenesulfonamide]
< 0.2	O=C(C[C@@H](C(=O)N1CCOCC1)N1CC[C@H](NS(=O)(=O)CCc2ccc(Cl)s2)C1=O)N1CCOCC1 [Example 31]
< 0.05	CN(C)C(=O)C[C@@H](C(=O)N1CCOCC1)N1CC[C@H](NS(=O)(=O)CCc2ccc(Cl)s2)C1=O [Example 32]
< 0.025	C[C@@H](C(=O)N1CCOCC1)N1CC[C@H](NS(=O)(=O)CCc2ccc(Br)cc2)C1=O [Example 33, 2-(4-bromophenyl)-N-{(3S)-1-[(1S)-1-methyl-2-morpholin-4-yl-2-oxoethyl]-2-oxopyrrolidin-3-yl}ethanesulfonamide]
< 0.025	CCOC(=O)CN([C@H]1CCN([C@@H](C)C(=O)N2CCOCC2)C1=O)S(=O)(=O)CCc1ccc(Cl)s1 [Example 34, Ethyl N-{[2-(5-chlorothien-2-yl)ethyl]sulfonyl}-N-{(3S)-1-[(1S)-1-methyl-2-morpholin-4-yl-2-oxoethyl]-2-oxopyrrolidin-3-yl}glycinate]
< 0.025	COC(=O)CN([C@H]1CCN([C@@H](C)C(=O)N2CCOCC2)C1=O)S(=O)(=O)CCc1ccc(Cl)s1 [Example 35, Methyl N-{[2-(5-chlorothien-2-yl)ethyl]sulfonyl}-N-{(3S)-1-[(1S)-1-methyl-2-morpholin-4-yl-2-oxoethyl]-2-oxopyrrolidin-3-yl}glycinate]
< 0.1	CC(C)C[C@@H](C(=O)N1CCOCC1)N1CC[C@H](NS(=O)(=O)CCc2ccc(Cl)s2)C1=O [Example 37, 2-(5-chlorothien-2-yl)-N-{(3S)-1-[(1S)-3-methyl-1-(morpholin-4-ylcarbonyl)butyl]-2-oxopyrrolidin-3-yl}ethanesulfonamide]
< 0.01	CC[C@H](C)[C@@H](C(=O)N1CCOCC1)N1CC[C@H](N(C)S(=O)(=O)CCc2ccc(Cl)s2)C1=O [Example 38, 2-(5-chlorothien-2-yl)-N-methyl-N-{(3S)-1-[(1S,2S)-2-methyl-1-(morpholin-4-ylcarbonyl)butyl]-2-oxopyrrolidin-3-yl}ethanesulfonamide]
< 0.025	CC[C@H](C)[C@@H](C(=O)N1CCOCC1)N1CC[C@H](N(CC(=O)NC)S(=O)(=O)CCc2ccc(Cl)s2)C1=O [Example 39, N^2-{[2-(5-chlorothien-2-yl)ethyl]sulfonyl}-N^1-methyl-N^2-{(3S)-1-[(1S,2S)-2-methyl-1-(morpholin-4-ylcarbonyl)butyl]-2-oxopyrrolidin-3-yl}glycinamide]
< 0.01	CC[C@H](C)[C@@H](C(=O)N1CCOCC1)N1CC[C@H](N(CC(=O)N(C)C)S(=O)(=O)CCc2ccc(Cl)s2)C1=O [Example 40, N^2-{[2-(5-chlorothien-2-yl)ethyl]sulfonyl)-N^1,N^1-dimethyl-N^2-{(3S)-1-[(1S,2S)-2-methyl-1-(morpholin-4-ylcarbonyl)butyl]-2-oxopyrrolidin-3-yl}glycinamide]
< 0.1	C[C@@H](C(=O)N1CCOCC1)N1CC[C@H](NS(=O)(=O)/C=C(/c2ccc(Cl)s2)C(F)(F)F)C1=O [Example 41, (1E)-2-(5-chlorothien-2-yl)-3,3,3-trifluoro-N-{(3S)-1-[(1S)-1-methyl-2-morpholin-4-yl-2-oxoethyl]-2-oxopyrrolidin-3-yl}prop-1-ene-1-sulfonamide]

— US20060166985A1, “Pyrrolydin-2-one derivatives as inhibitors of thrombin and factor xa” (priority 2002, published 2006)
